Results reported in paper PMC8401265, “Evolutionary Diversification of Host-Targeted Bartonella Effectors Proteins Derived from a Conserved FicTA Toxin-Antitoxin Module” (Microorganisms, 2021).

Target: T1, Btr_BepC FIC (Bartonella tribocorum, UniProt A9IWP7)
T1 construct: gene bepC
Assay: X-ray crystallography
Type: binding
Settings: active site; pH 6.5 crystals; lysine K150 contacts alpha-phosphate

T1 sequence (A9IWP7 entry or part of it): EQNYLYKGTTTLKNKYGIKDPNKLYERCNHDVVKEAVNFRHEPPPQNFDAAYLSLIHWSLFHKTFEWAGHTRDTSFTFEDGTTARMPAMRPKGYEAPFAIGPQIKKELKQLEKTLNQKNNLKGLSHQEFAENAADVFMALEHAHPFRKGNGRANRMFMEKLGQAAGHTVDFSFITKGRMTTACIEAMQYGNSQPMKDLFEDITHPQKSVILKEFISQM

Q: With `Nc1ncnc2c1ncn2[C@@H]1O[C@H](COP(=O)(O)OP(=O)(O)NP(=O)(O)O)[C@@H](O)[C@H]1O` [AMPPNP] as the molecule, how does the X-ray crystallography read?
A: the complex of Btr_BepC with AMPPNP (Figure 9A) demonstrates competent tri-phosphate nucleotide binding
